Key:
[1] = cited from earlier work
[2] = alone; cited from earlier work
[3] = cited from earlier work; remark: listed apart in the source
[4] = test system: UM-UC-9 cells; test: Direct cell counting dose-response proliferation assay; type: cell-based, human
Method: To determine whether PPARG modulators affect the proliferation and/or viability of PPARG-activated bladder cancer cell lines, a direct cell counting-based assay was performed. This assay likely avoids potential artifacts associated with the use of an ATP content-based assay, given that PPAR modulators are known to regulate cellular metabolic activity. […] These IC50 values align well with the calculated IC50s from both the cell-based reporter gene assay (FIG. 8A) and the biochemical corepressor assay (FIG. 8D).
(§1) Proliferation Assays: To enable cell-counting experiments, cell lines were transduced with a lentiviral vector encoding nuclear-targeted GFP, TagGFP2-H2B (Evrogen), and stable pools generated following selection for puromycin resistance. Cell lines were maintained for at least 7 days following selection prior to expansion and seeding into 96- or 384-well plates for further analysis. For kinetic proliferation assays, 96-well plates (n 1% 4 per condition) were imaged and counted every two hours using IncuCyte Zoom (Essen BioScience). Media and compounds were replaced approximately every 3-4 days. For endpoint assays to measure dose-response, cells were plated in 384-well plates, dosed with compound, and upon reaching approximately 70% to 90% confluence in control wells, cells were either counted using fluorescence imaging (Incu-Cyte Zoom) or incubated with CyQuant (Thermo Fisher) at the indicated time and plates were read with a fluorescent plate reader.

[5] = test system: DLBCL cells; conditions: 1-15 uM; cited from earlier work
[6] = test system: FABP4 expression; test: Immunoblot of FABP4 in bladder cancer cell lines; type: cell-based, human; conditions: panel of bladder cancer cell lines
Method: Western Blot Analysis: Western blots were performed using standard protocols with semi-dry transfer Trans-Blot® SD (Bio-Rad Hercules, CA), Li-Cor Odyssey Blocking buffer, and imaging with LiCor Odyssey Imaging System (LI-COR Lincoln, NE). Briefly, cells were grown in 6-well plates and harvested using Complete Lysis-M with protease and phosphatase inhibitors (Roche Applied Science). Western blot analyses were performed using standard protocols with semi-dry transfer Trans-Blot SD (Bio-Rad), LI-COR Odyssey Blocking buffer, and imaging with LI-COR Odyssey Imaging System (LI-COR). The anti-PPARG C26H12, anti-PPARG 81B8, anti-FABP4 D25B3, and anti-CEACAM5 CB30 antibodies were obtained from Cell Signaling Technology. The anti-ACSL5 ab57210 and anti-HMCGS2 EPR8642 antibodies were obtained from Abcam. The anti-VCL (vinculin) V9264 antibody was obtained from Sigma-Aldrich. All primary antibodies were tested at 1:1,000 dilutions, with the exception of anti-VCL, which was tested at a 1:5,000 dilution. Secondary goat anti-mouse 926-68020, and goat-anti-rabbit 926-32211 antibodies were obtained from LI-COR Biosciences and used at 1:15,000 dilutions.

[7] = test system: 5637 cells; test: Proliferation assay in PPARG-amplified 5637 cells; type: cell-based; conditions: Homo sapiens; data not shown
Method: To determine if treatment of PPARG-activated bladder cancer cell lines with PPARG modulators impacted viability, a variety of compounds were tested in proliferation assays.

[8] = test system: PPARG-activated pancreatic and colorectal cancer cell lines; test: Kinetic proliferation assay in pancreatic and colorectal cancer cell lines; type: cell-based; conditions: 500 nM
Source text: To enable cell-counting, cell lines were transduced with a lentiviral vector encoding nuclear-targeted GFP (TagGFP2-H2B), and stable pools generated following selection for puromycin-resistance. Cell lines were maintained for at least 7 days following selection prior to expansion and seeding into 96-well plates for further analysis. For kinetic proliferation assays, 96-well plates were imaged in phase-contrast and green fluorescence mode every two hours using IncuCyte Zoom (Essen BioScience, Ann Arbor MI). Using IncuCyte software, the number of fluorescent nuclei were counted to monitor quantitative changes in cell number over time. Media and compounds were replaced approximately every 3-4 days.
DMSO treatment was also included as a vehicle control.

[9] = test system: PPARG-activated bladder cancer cell lines; test: Proliferation assays in PPARG-activated bladder cancer cell lines; type: cell-based, human; conditions: 100 nM-500 nM
Method: A panel of bladder cancer cell lines with PPARG modulators in colony formation assays was then tested (FIG. 10), kinetic proliferation assays (IncuCyte Zoom; Essen Bioscience) using cell lines treated with a single concentration of compound (100 nM-500 nM), and end-point dose-response assays (CellTiter Glo or CyQuant).
This assay was expanded to include an additional 8 representative bladder cancer cell lines, including cell lines with PPARG amplification, RXRA p.S427F mutation, activated gene signature, and control cell lines with low level expression of PPARG and target genes. […] Representative data for the UM-UC-9 cell line are shown in FIG. 6B, and is tabulated for the tested bladder cancer cell lines in Table 1. […] This significant (P<0.01) preferential sensitivity to PPARG inverse-agonists, but not antagonists, is maintained across all of the PPARG-activated cell lines in the panel, including the RXRA p.S427F cell line, HT-1197 (41), the PPARG-amplified cell lines, 5637 and UM-UC-9, and the PPARG activation gene signature cell lines Cal29, UM-UC-1, and RT112/84 (FIG. 12). […] Similar results were obtained with these cell lines in parallel studies using clonogenic assays to quantify colony-forming ability (FIG. 10).
as §1

[10] = molecular target: T1, PPARA (Homo sapiens, UniProt Q07869); conditions: read-out: apparent Ki; cited from earlier work
T1 sequence (Q07869 1-468): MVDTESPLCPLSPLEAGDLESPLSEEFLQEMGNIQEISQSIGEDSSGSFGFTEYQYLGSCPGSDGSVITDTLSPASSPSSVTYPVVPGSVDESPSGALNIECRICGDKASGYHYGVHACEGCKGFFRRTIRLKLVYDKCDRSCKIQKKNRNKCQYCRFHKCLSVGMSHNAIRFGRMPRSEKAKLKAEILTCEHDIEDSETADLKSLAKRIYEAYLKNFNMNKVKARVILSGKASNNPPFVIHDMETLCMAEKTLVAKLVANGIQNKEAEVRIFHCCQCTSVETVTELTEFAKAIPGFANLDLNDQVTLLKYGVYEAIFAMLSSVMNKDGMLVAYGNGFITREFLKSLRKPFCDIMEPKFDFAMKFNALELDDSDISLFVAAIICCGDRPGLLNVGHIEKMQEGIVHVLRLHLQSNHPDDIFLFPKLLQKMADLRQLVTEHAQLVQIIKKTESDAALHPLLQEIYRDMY

[11] = test system: bladder cancer; conditions: rodents; cited from earlier work
[12] = test system: urinary bladder carcinogenesis; conditions: rats; cited from earlier work

For `N.N.O=C([O-])C1(C(=O)[O-])CCC1.[Pt+2]` [Carboplatin, platinum, diammine [1,1-cyclobutane-dicarboxylato(2-)-0,0′]-(SP-4-2)], the “pH of a 1% solution” value [1] is listed as 5-7, the oral bioavailability [2] is listed as “approximately 4%” and the solubility in water [3] is listed as “approximately 14 mg/mL”.
In the case of `O=C(Nc1ccncc1)c1cc([N+](=O)[O-])ccc1Cl` [T0070907, 2-Chloro-5-nitro-N-4-pyridinyl-benzamide], the “effect on cell proliferation compared with DMSO control” value [4] is given as “significantly reduced proliferation”, the IC50 ([4]; Homo sapiens, UM-UC-9, read-out: calculated IC50, proliferation) is given as 39 nM and the “growth of DLBCL cells” value [5] is given as “attenuate growth”. For the same compound, the “expression of FABP4” value [6] was “able to reduce expression of FABP4”, the IC50 [7] was 20 to 30 nM and the “sensitivity of cell lines” value [8] was “preferentially sensitive”. For the same compound, the “sensitivity of cell lines” value [9] was “preferentially sensitive” and the Ki [10] was ~850 nM.
In the case of `CN(CCOc1ccc(CC2SC(=O)NC2=O)cc1)c1ccccn1` (stereo not shown) [rosiglitazone], the “carcinogenic effect, bladder cancer” value [11] is given as “not” and the “urinary bladder carcinogenesis compared with OH-BBN alone” value [12] is given as “potentiate urinary bladder carcinogenesis”.
